Data published in paper PMC10258805, “Nonpeptidic Oxazole-Based Prolyl Oligopeptidase Ligands with Disease-Modifying Effects on α-Synuclein Mouse Models of Parkinson’s Disease” (Journal of Medicinal Chemistry, 2023).
Like-named read-outs stand apart in the source and are kept apart here. Where a SMILES comes first, the peptide text is derived from it. The star is where a group is joined. Cbz = O=C(OCc1ccccc1)*

Experiments:
[1] = tested on: αSyn dimerization in Neuro2A (N2A) cells; experiment: αSyn-dimerization assay (split Gaussia luciferase PCA); settings: for effect on αSyn dimerization (in words): 10 μM, N2A cells; for activity at 10 µM: Mus musculus, N2a
[2] = tested on: HEK-293 cells stably expressing GFP-LC3B; experiment: Autophagic flux (GFP-LC3B reporter cells)
recombinant porcine PREP = target: T1, recombinant porcine PREP (Sus scrofa, UniProt P23687); experiment: PREP activity assay (inhibition of proteolytic activity); format: biochemical
T1 construct: made in house
T1 sequence (P23687 whole entry): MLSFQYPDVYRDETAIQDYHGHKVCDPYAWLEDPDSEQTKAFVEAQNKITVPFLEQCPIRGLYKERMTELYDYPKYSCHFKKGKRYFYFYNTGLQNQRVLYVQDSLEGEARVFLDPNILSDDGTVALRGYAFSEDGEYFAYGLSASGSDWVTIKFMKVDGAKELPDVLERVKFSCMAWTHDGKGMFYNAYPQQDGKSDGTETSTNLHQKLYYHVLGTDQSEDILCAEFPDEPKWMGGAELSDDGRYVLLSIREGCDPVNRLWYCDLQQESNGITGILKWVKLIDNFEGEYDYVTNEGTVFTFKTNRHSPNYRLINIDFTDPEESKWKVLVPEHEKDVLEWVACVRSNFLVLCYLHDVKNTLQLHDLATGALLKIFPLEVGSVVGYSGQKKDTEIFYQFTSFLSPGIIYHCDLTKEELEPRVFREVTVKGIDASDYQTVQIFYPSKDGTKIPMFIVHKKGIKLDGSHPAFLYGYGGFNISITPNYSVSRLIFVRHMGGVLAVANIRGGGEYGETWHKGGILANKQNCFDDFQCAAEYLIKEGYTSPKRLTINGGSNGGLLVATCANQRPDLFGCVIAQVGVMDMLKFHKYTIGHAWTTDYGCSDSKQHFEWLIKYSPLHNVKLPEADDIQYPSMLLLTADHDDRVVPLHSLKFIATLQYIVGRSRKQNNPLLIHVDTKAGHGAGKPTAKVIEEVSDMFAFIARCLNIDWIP

[3] = tested on: ROS production in SH-SY5Y cells; experiment: ROS detection assay under oxidative stress; settings: Homo sapiens, 3 h
[4] = Suc-Gly-Pro-AMC as substrate, 95% CI in brackets, read-out: IC50 (nM) (95% CI)
[5] = read-out: aSyn dimerization at 10 uM (%)
[6] = read-out: αSyn dimer. at 10 μM (%)
[7] = Homo sapiens, HEK293, 24 h, read-out: Autophagy at 10 uM (%)
[8] = Homo sapiens, HEK293, 24 h, read-out: autophagy at 10 μM (%)
[9] = read-out: luminescence signal compared to the DMSO control (αSyn dimerization)
[10] = supplementary CSV, read-out: IC50
[11] = Homo sapiens, HEK293, 24 h, read-out: GFP signal of the DMSO control (autophagic flux)
[12] = read-out: ROS production, % of the control

| Compound | effect on αSyn dimerization (in words) [1] | GFP signal compared to the DMSO control (in words) ([2]; 20 nM, autophagy inhibitor control) | IC50 (recombinant porcine PREP; [4]) [nM] | activity at 10 µM [1, 5] [%] | activity at 10 µM [1, 6] [%] | activity at 10 µM [2, 7] [%] | activity at 10 µM [2, 8] [%] | activity at 10 µM ([3]; read-out: ROS at 10 uM (%)) [%] | activity at 10 µM ([3]; read-out: ROS at 10 μM (%)) [%] | inhibitory activity (in words) (recombinant porcine PREP) | activity at 10 µM [1, 9] [%] | IC50 (recombinant porcine PREP; [10]) [nM] | activity at 10 µM [2, 11] [%] | IC50 (recombinant porcine PREP; read-out: IC50 value) [nM] | activity at 10 µM [3, 12] [%] | activity at 0.5 µM [2, 11] [%] |
| --- | --- | --- | --- | --- | --- | --- | --- | --- | --- | --- | --- | --- | --- | --- | --- | --- |
| CC(C)C[C@@H](C=O)NC(=O)[C@H](CC(C)C)NC(=O)[C@H](CC(C)C)NC(=O)OCc1ccccc1 [MG-132, reference compound] (Cbz-Leu-Leu-Leu-aldehyde) | significantly increased αSyn dimerization | – | – | – | – | – | – | – | – | – | – | – | – | – | – | – |
| CO/C1=C\C(C)=C\[C@@H](C)[C@@H](O)[C@@H](C)C/C(C)=C/C=C/[C@H](OC)[C@@H]([C@@H](C)[C@@H](O)[C@H](C)[C@@]2(O)C[C@@H](O)[C@H](C)[C@@H](C(C)C)O2)OC1=O [bafilomycin A1, Bafilomycin A1, reference compound] | – | significant effect | – | – | – | – | – | – | – | – | – | – | – | – | – | – |
| C[C@H](NC(=O)CCCc1ccccc1)C(=O)N1CCC[C@H]1C#N [compound 2, reference compound] | – | – | 3.3 | 105 | 105 ± 14 | 86 | 86 ± 6 | 92 | 92 ± 7 | – | – | – | – | – | – | – |
| Cc1nc(CCCc2ccccc2)oc1N1CCC[C@@H]1C#N [compound 3, (R)-1-(4-Methyl-2-(3-phenylpropyl)oxazol-5-yl)pyrrolidine-2-carbonitrile] | – | – | – | 94 | 94 ± 8 | – | – | 88 | 88 ± 5 | – | – | – | – | – | – | – |
| Cc1nc(CCCc2ccccc2)oc1N1CCCC[C@H]1C#N [compound 4, (S)-1-(4-Methyl-2-(3-phenylpropyl)oxazol-5-yl)piperidine-2-carbonitrile] | – | – | > 1e+06 | 86 | 86 ± 19 | 97 | 97 ± 2 | – | – | inactive | 80 to 85 | – | – | – | – | – |
| Cc1nc(CCCc2ccccc2)oc1N(CC#N)C(=O)C(F)(F)F [compound 5, N-(Cyanomethyl)-2,2,2-trifluoro-N-(4-methyl-2-(3-phenylpropyl)oxazol-5-yl)acetamide] | – | – | – | 112 | 112 ± 6 | 77 | 77 ± 17 | – | – | very low inhibitory activities | – | 108000 | ≤ 88 | – | – | – |
| Cc1nc(CCCc2ccccc2)oc1N(C)CC#N [compound 6, 2-(Methyl(4-methyl-2-(3-phenylpropyl)oxazol-5-yl)amino)acetonitrile] | – | – | – | 109 | 109 ± 6 | 96 | 96 ± 3 | 94 | 94 ± 7 | very low inhibitory activities | – | 12400 | – | – | – | – |
| CC(C)c1nc(CCCc2ccccc2)oc1N1CCC[C@H]1C#N [compound 7, 4-Phenylbutanoyl-(4-isopropyl-2-oxazol-5-yl)-2(S)-cyanopyrrolidine] | – | – | 156 | 82 | 82 ± 13 | 82 | 82 ± 8 | 81 | 81 ± 5 | – | 80 to 85 | – | ≤ 88 | 156 to 445 | < 88 | – |
| CC(C)Cc1nc(CCCc2ccccc2)oc1N1CCC[C@H]1C#N [compound 8, 4-Phenylbutanoyl-(4-isobutyl-2-oxazol-5-yl)-2(S)-cyanopyrrolidine] | – | – | 4580 | 80 | 80 ± 6 | 81 | 81 ± 11 | 83 | 83 ± 7 | – | 80 to 85 | – | ≤ 88 | – | < 88 | – |
| CC(C)(C)c1nc(CCCc2ccccc2)oc1N1CCC[C@H]1C#N [compound 9, (S)-1-(4-(tert-Butyl)-2-(3-phenylpropyl)oxazol-5-yl)pyrrolidine-2-carbonitrile] | – | – | – | 92 | 92 ± 6 | 103 | 103 ± 3 | 86 | 86 ± 10 | further reduced inhibitory activities | – | 415000 | – | – | < 88 | – |
| N#C[C@@H]1CCCN1c1oc(CCCc2ccccc2)nc1-c1ccccc1 [compound 10, 4-Phenylbutanoyl-(4-phenyl-2-oxazol-5-yl)-2(S)-cyanopyrrolidine] | – | – | – | 97 | 97 ± 10 | 104 | 104 ± 6 | 77 | 77 ± 8 | further reduced inhibitory activities | – | 17400 | – | – | 75 | – |
| CSCCc1nc(CCCc2ccccc2)oc1N1CCC[C@H]1C#N [compound 11, (S)-1-(4-(2-(Methylthio)ethyl)-2-(3-phenylpropyl)oxazol-5-yl)pyrrolidine-2-carbonitrile] | comparable effect as KYP-2047 | – | 445 | 90 | 90 ± 8 | 92 | 92 ± 5 | 101 | 101 ± 8 | – | – | – | – | 156 to 445 | – | – |
| Cc1nc(CCCCc2ccccc2)oc1N1CCC[C@H]1C#N [compound 16, (S)-1-(4-Methyl-2-(4-phenylbutyl)oxazol-5-yl)pyrrolidine-2-carbonitrile] | – | – | – | 108 | 108 ± 2 | 89 | 89 ± 6 | – | – | – | – | – | – | – | – | – |
| N#Cc1nc(CCCc2ccccc2)oc1N [compound 26, 5-Amino-2-(3-phenylpropyl)oxazole-4-carbonitrile] | – | – | > 1e+06 | 73 | 73 ± 15 | 96 | 96 ± 4 | – | – | – | ≤ 75 | – | – | – | – | – |
| N#Cc1nc(CCCc2ccccc2)oc1N1CCCC1 [compound 27, 2-(3-Phenylpropyl)-5-(pyrrolidin-1-yl)oxazole-4-carbonitrile] | comparable effect as KYP-2047 | – | – | 88 | 88 ± 6 | 96 | 96 ± 5 | – | – | very weak inhibitors | – | 75400 | – | – | – | – |
| Cc1oc(CCCc2ccccc2)nc1C(=O)N1CCCC1 [compound 31, (5-Methyl-2-(3-phenylpropyl)oxazol-4-yl)(pyrrolidin-1-yl)methanone] | – | – | – | 117 | 117 ± 11 | 97 | 97 ± 4 | – | – | very low inhibitory activities | – | 138000 | – | – | – | – |
| Cc1oc(CCCc2ccccc2)nc1C(=O)N1CCC[C@H]1C(N)=O [compound 32, (S)-1-(5-Methyl-2-(3-phenylpropyl)oxazole-4-carbonyl)pyrrolidine-2-carboxamide] | – | – | > 1e+06 | – | – | 98 | 98 ± 3 | – | – | very low inhibitory activities | – | – | – | – | – | – |
| CC(=O)N[C@@H](CSC(=O)[C@]1([C@@H](O)C(C)C)NC(=O)[C@H](C)[C@@H]1O)C(=O)O [lactacystin, reference compound] | significantly increased αSyn dimerization | – | – | – | – | – | – | – | – | – | – | – | – | – | – | – |
| CO[C@H]1C[C@@H]2CC[C@@H](C)[C@@](O)(O2)C(=O)C(=O)N2CCCC[C@H]2C(=O)O[C@H]([C@H](C)C[C@@H]2CC[C@@H](O)[C@H](OC)C2)CC(=O)[C@H](C)/C=C(\C)[C@@H](O)[C@@H](OC)C(=O)[C@H](C)C[C@H](C)/C=C/C=C/C=C/1C [rapamycin, reference compound] | – | – | – | – | – | – | – | – | – | – | – | – | – | – | – | 65 |
